In US12358921B2, “Antiviral heterocyclic compounds” (priority 2022, dated 2025):

Experiments:
Assay type in all cases: cell-based
[1] = system: hMPV A2 TN/94-49; test: HMPV antiviral assay Method 1 (LLC-MK2 cells, ATP-Lite); settings: hMPV A2 TN/94-49, LLC-MK2 cells
Method: In vitro HMPV antiviral activity was evaluated using the clinical isolate A2 strain TN 94-49 (obtained from Dr. John Williams, Vanderbilt University, Tennessee) and […] cells (ATCC #CCL-7), an immortalized kidney epithelial cell line from Macaca mulatta. Compounds were resuspended in dimethyl sulfoxide (DMSO) at 10 mM, serially diluted and added to a 384-well source plate. Subsequently, the compounds were diluted and transferred onto 384-well assay plates using the Echo-650 automated liquid handling system (Beckman Coulter, Indiana). The test compounds were assessed in duplicate at a top concentration of 2 μM followed by 2.5-fold serial dilutions to give a total of 10 concentration points. DMSO control wells were also included on the assay plates and were either infected or not, acting as positive and negative controls. A2 TN 94-49 virus infections were performed in-suspension with LLC-MK2 cells. The cells were washed twice with PBS and removed from the cell-culture flask with 0.25% trypsin-EDTA (Thermo Fisher Scientific, MA). The trypsin-EDTA was inactivated by resuspending in 2% fetal bovine serum (FBS) and OptiMEM (ThermoFisher Scientific, MA) containing 1% penicillin-streptomycin. Cells were pelleted by centrifuging for 5 minutes at 800 rpm, the supernatant was removed, and cells were re-suspended and washed in PBS plus 100 μg/mL CaCl2). This step was performed twice. Cells were then re-suspended in serum-free (SF)-OptiMEM containing 4 μg/mL TPCK-Trypsin (Sigma Aldrich, MO), 1% penicillin-streptomycin (ThermoFisher Scientific, MA) and 100 μg/mL CaCl2). Cells were counted and seeded at a density of 5,000 cells/well, 12.5 μL/well. Virus infections were done at a multiplicity of infection (MOI) of 0.005 with 12.5 μL added per well. Virus infections were performed in infection media which contained SF-OptiMEM, 100 μg/mL CaCl2) and 1% penicillin-streptomycin. HMPV viral stocks are suspended in infection media+5% glycerol, thus an equal volume of infection media+5% glycerol was added to uninfected wells to equalize the final % glycerol across all wells of the assay plate. The final concentration of TPCK-trypsin was 2 μg/mL. The assay plates were incubated at 37° C., 5% CO2 for 7 days. After 7 days incubation, 12.5 μL of ATP-Lite (PerkinElmer, MA) was added to each well and the raw luminescence values were determined using the Envision 2104 (Perkin Elmer, MA). The average of the raw luminescence values for the cells and virus only positive control wells was subtracted from all conditions tested and the percent cell health was determined by dividing these values by the average of the cells only negative control wells. EC50 values were then calculated by non-linear regression using a four-parameter curve logistic equation. The curve fit model employed was XLFit Dose Response One Site Model 200: y=(A+(B/(1+((x/C)^D)))), where A is the minimum y value, B is the maximum y value, C is the log EC50value, and D is the slope factor. Method 2: In Vitro HMPV Antiviral Activity was Evaluated Using the Clinical Isolate A2 Strain TN 94-49

[2] = system: HUMAN RSV-A (“LONG” STRAIN); test: RSV-A assay (CPE, ATPlite) in Hep-2 cells; settings: human respiratory syncytial virus, 120 h, MOI 0.1, 5-day incubation
Procedure, shortened: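 Hep-2 cells (8,000/well) given 2-fold serial compound dilutions in duplicate, then infected with RSV-A Long strain at MOI 0.1. After 5 days, virus-induced cytopathic effect quantified as cellular ATP by ATPlite luminescence, against virus-only and uninfected controls; EC50 reported in ranges.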

[3] = system: hMPV A2 TN/94-49; test: HMPV antiviral assay Method 2 (LLC-MK2 cells with CP-100-356, ATP-Lite); settings: hMPV A2 TN/94-49, LLC-MK2 cells, 4 μM CP-100-356, Method 2
Procedure, shortened: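 LLC-MK2 cells infected in suspension with hMPV A2 TN/94-49 at MOI 0.16, in serum-free OptiMEM with final 2 μg/mL TPCK-trypsin and 2 μM CP-100-356 (P-gp inhibitor). Compounds tested in duplicate, top 200 nM, 2.5-fold, 10 points; 7 days at 37 °C. ATP-Lite cell health normalised to controls; EC50 by four-parameter fit.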

Structure (SMILES) | EC50 [1] [µM] | EC50 [2] [µM] | EC50 [3] [µM]
COc1cc(C(=O)NC[C@@](O)(c2ccccc2)c2cc3c(c(-c4cc(Cl)c(F)cc4F)n2)OC[C@]3(C)C(N)=O)cc2ccc(C)nc12 [Example 79] | < 0.5 |  | 
COc1cc(C(=O)NC[C@@](O)(c2cc3c(c(-c4cc(Cl)c(F)cc4F)n2)OC[C@]3(C)C(N)=O)c2cc(C)cs2)cc2cn(C3CC3)nc12 [Example 466] | > 0.5 |  | 
[2H]C([2H])([2H])c1nc2ccc(C(=O)NC[C@@](O)(c3ccccc3)c3cc4c(c(-c5cc(Cl)c(F)cc5F)n3)OC[C@]4(C)C(N)=O)cc2o1 [Example 87] | < 0.5 | < 0.2 | 
COc1cc(C(=O)NC[C@@](O)(c2ccc(F)cc2)c2cc3c(c(-c4ccc5c(c4Cl)OC(F)(F)O5)n2)OC[C@]3(C)C(N)=O)cc2cc(C(F)(F)F)cnc12 [Example 26] | > 0.5 | < 0.2 | 
COc1ccc([C@](O)(CNC(=O)c2cc(OC)c3nn(C(F)F)cc3c2)c2cc3c(c(-c4cc(Cl)c(F)cc4F)n2)OC[C@]3(C)C(N)=O)cc1 [Example 167] | < 0.5 | < 0.2 | 
COc1cc(C(=O)NC[C@@](O)(c2ccsc2)c2cc3c(c(-c4cc(Cl)c(F)cc4F)n2)OC[C@]3(C)C(N)=O)cc2cn(C3(F)CC3)nc12 [Example 175] | < 0.5 | < 0.2 | 
COc1cc(C(=O)NC[C@](O)(c2cc3c(c(-c4cc(F)c(F)c(F)c4Cl)n2)OC[C@]3(C)C(N)=O)C(F)(F)F)cc2cn(C3CC3)nc12 [Example 59] | < 0.5 | < 0.2 | 
COc1cc(C(=O)NC[C@@](O)(c2ccccc2)c2cc3c(c(-c4cc(Cl)c(F)cc4F)n2)OC[C@]3(C)C(N)=O)cc2oc(C)nc12 [Example 84] | < 0.5 |  | 
C[C@]1(C(N)=O)COc2c1cc([C@@](O)(CNC(=O)c1ccc3nc(C(F)(F)F)oc3c1)c1ccccc1)nc2-c1cc(Cl)c(F)cc1F [Example 82] | > 0.5 |  | 
COc1cc(C(=O)NC[C@@](O)(c2ccccc2)c2cc3c(c(-c4cc(Cl)c(F)cc4F)n2)OC[C@]3(C)C(N)=O)cc2cc(C(F)(F)F)cnc12 [Example 83] | < 0.5 |  | 
COc1cc(C(=O)NC[C@@](O)(c2cccc(F)c2)c2cc3c(c(-c4cccc(Cl)c4Cl)n2)OC[C@]3(C)C(N)=O)cn2cc(C3CC3)nc12 [Example 337] |  | < 0.2 | < 0.2
COc1cc(C(=O)NCC(O)(c2cc(F)nc(F)c2)c2cc3c(c(-c4cccc(Cl)c4Cl)n2)OC[C@]3(C)C(N)=O)cc2cn(C3CC3)nc12 (some centres unmarked) [Example 499] |  | < 0.2 | < 0.2
C[C@]1(C(N)=O)COc2c1cc([C@@](O)(CNC(=O)c1cc(OC3CC3)c3nn(C4CC4)cc3c1)c1ccccc1)nc2-c1cc(Cl)c(F)cc1F [Example 98] |  | < 0.2 | < 0.2
COc1cc([C@](O)(CNC(=O)c2cc(OC)c3nn(C(F)F)cc3c2)c2cc3c(c(-c4cccc(Cl)c4Cl)n2)OC[C@]3(C)C(N)=O)cc(OC)n1 [Example 498] |  | < 0.2 | < 0.2
COc1cc(C(=O)NC[C@@](O)(c2ccccc2)c2cc3c(c(-c4cc(Cl)c(F)cc4F)n2)OC[C@]3(C)C(N)=O)cn2cc(C3CC3)nc12 [Example 115] |  | < 0.2 | < 0.2
COc1cc(C(=O)NC[C@@](O)(c2cccc(F)n2)c2cc3c(c(-c4cc(Cl)c(F)cc4F)n2)OC[C@]3(C)C(N)=O)cc2cn(C3(F)CC3)nc12 [Example 204] |  | < 0.2 | < 0.2
COc1cc(C(=O)NC[C@@](O)(c2ccccc2)c2cc3c(c(-c4cc(C(F)F)c(F)cc4F)n2)OC[C@]3(C)C(N)=O)cc2cn(C(F)F)nc12 [Example 300] |  | < 0.2 | < 0.2
C[C@]1(C(N)=O)COc2c1cc([C@@](O)(CNC(=O)c1ccc3nc(C4(F)CC4)oc3c1)c1ccccc1)nc2-c1cc(Cl)c(F)cc1F [Example 219] |  | < 0.2 | < 0.2

The next lines start with the values.

EC50 [1] [µM] | EC50 [2] [µM] | EC50 [3] [µM] | Structure (SMILES)
< 0.5 | < 0.2 |  | COc1cc(C(=O)NC[C@@](O)(c2ccc(F)cc2)c2cc3c(c(-c4cc(Cl)c(F)cc4F)n2)OC[C@]3(C)C(N)=O)cc2cn(C(F)F)nc12 [Example 13]
< 0.5 | < 0.2 |  | Cc1nc2ccc(C(=O)NC[C@@](O)(c3cccc(F)c3)c3cc4c(c(-c5ccc6c(c5Cl)OC(F)(F)O6)n3)OC[C@]4(C)C(N)=O)cc2o1 [Example 284]
< 0.5 | < 0.2 |  | COc1cc(C(=O)NC[C@@](O)(c2ccc(F)cc2)c2cc3c(c(-c4ccc(F)c(Cl)c4Cl)n2)OC[C@]3(C)C(N)=O)cc2cc(Cl)c(C)nc12 [Example 44]
< 0.5 | < 0.2 |  | [2H]C([2H])([2H])c1nc2c(OC)cc(C(=O)NC[C@@](O)(c3cccc(OC)c3)c3cc4c(c(-c5cc(Cl)c(F)cc5F)n3)OC[C@]4(C)C(N)=O)cc2s1 [Example 163]
< 0.5 | < 0.2 |  | [2H]C([2H])([2H])c1nc2c(OC)cc(C(=O)NC[C@@](O)(c3ccc(OC)cc3)c3cc4c(c(-c5cc(Cl)c(F)cc5F)n3)OC[C@]4(C)C(N)=O)cc2s1 [Example 168]
< 0.5 | < 0.2 |  | C[C@]1(C(N)=O)COc2c1cc([C@@](O)(CNC(=O)c1cc(Cl)c3nn(C4CC4)cc3c1)C1CC1)nc2-c1ccc2c(c1Cl)OC(F)(F)O2 [Example 35]
< 0.5 | < 0.2 |  | C[C@]1(C(N)=O)COc2c1cc([C@@](O)(CNC(=O)c1cc(OC(F)F)c3nn(C4CC4)cc3c1)C1CC1)nc2-c1ccc(F)c(Cl)c1F [Example 40]
< 0.5 | < 0.2 |  | [2H]c1nc2c(OC(F)F)cc(C(=O)NC[C@@](O)(c3ccccc3)c3cc4c(c(-c5cc(Cl)c(F)cc5F)n3)OC[C@]4(C)C(N)=O)cc2cc1C([2H])([2H])[2H] [Example 217]
< 0.5 | < 0.2 |  | COc1cc(C(=O)NC[C@@](O)(c2ccsc2)c2cc3c(c(-c4cc(F)c(F)cc4F)n2)OC[C@]3(C)C(N)=O)cc2cn(C3CC3)nc12 [Example 177]
< 0.5 | < 0.2 |  | COc1cc(C(=O)NC[C@@](O)(c2ccccc2)c2cc3c(c(-c4cc(C(F)F)c(F)cc4F)n2)OC[C@]3(C)C(N)=O)cc2cn(C3CC3)nc12 [Example 288]
< 0.5 | < 0.2 |  | COc1cc(C(=O)NC[C@](O)(c2cc3c(c(-c4cc(Cl)c(F)cc4F)n2)OC[C@]3(C)C(N)=O)c2ccccc2F)cc2cc(C3CC3)nn12 [Example 137]
< 0.5 | < 0.2 |  | COc1cc(C(=O)NC[C@@](O)(c2ccc(F)cc2)c2cc3c(c(-c4ccc(F)c(Cl)c4Cl)n2)OC[C@]3(C)C(N)=O)cc2cc(C3CC3)nn12 [Example 45]
> 0.5 | < 0.2 |  | COc1cc(C(=O)NC[C@](O)(c2cc3c(c(-c4cc(Cl)c(C)cc4F)n2)OC[C@]3(C)C(N)=O)C2CC2)cc2cn(C3CC3)nc12 [Example 51]
< 0.5 | < 0.2 |  | [2H]C([2H])([2H])c1cc2cc(C(=O)NC[C@](O)(c3cc4c(c(-c5cc(Cl)c(F)cc5F)n3)OC[C@]4(C)C(N)=O)C3CC3)cc(OC)c2nc1C([2H])([2H])[2H] [Example 29]
< 0.5 | < 0.2 |  | COc1cc(C(=O)NC[C@@](O)(c2ccccc2)c2cc3c(c(-c4cc(C(F)(F)F)ccc4F)n2)OC[C@]3(C)C(N)=O)cc2cn(C(F)F)nc12 [Example 148]
< 0.5 | < 0.2 |  | COc1cc(C(=O)NC[C@@](O)(c2ccsc2)c2cc3c(c(-c4cc(F)c(F)cc4F)n2)OC[C@]3(C)C(N)=O)cc2cn(C(F)F)nc12 [Example 178]
< 0.5 | < 0.2 |  | COc1cc(C(=O)NC[C@](O)(c2cc3c(c(-c4cc(F)c(F)cc4F)n2)OC[C@]3(C)C(N)=O)C2CC(F)(F)C2)cc2cn(C3CC3)nc12 [Example 31]
